Source: patent US20240336972A1, “METHODS FOR SELECTING MELANOMA PATIENTS FOR THERAPY AND METHODS OF REDUCING OR PREVENTING MELANOMA METASTASIS” (Oregon Health & Science University, priority 2021, published 2024)
Entries after “also recorded” stand apart in the source; their conditions may differ.

Legend:
A375 melanoma cells = assay: RNA-seq of A375 melanoma cells before and after treatment with fluvastatin; assay type: cell-based, human
Experimental: Characterization of the transcriptome in human melanoma cells exposed to fluvastatin The effect of statins on the melanoma transcriptome was characterized using a well-established melanoma cell line. Human melanoma cell line A375 (a generous gift of Dr John Letterio, Case Western Reserve University, Cleveland, OH) were maintained in standard growth media consisting of RPMI 1640 (Thermo Fisher Scientific, Waltham, MA) b 10% fetal bovine serum p 2 mM glutamine and grown in a 5% carbon dioxide-humidified atmosphere at 37° C. Cells were tested biannually and shown to be negative for mycoplasma contamination using the Mycoplasma Detection kit (MycoAlert, Lonza, Basel, Switzerland). For gene expression studies, A375 cells were seeded at 2.5E6 per […] and allowed to adhere overnight. Test samples (in triplicate) were treated with fluvastatin (purchased from Millipore Sigma, St. […] Untreated control cells grown side by side were used as the reference control for differential expression analysis. RNA was quantified using the Qubit Broad Range RNA kit (catalog #Q10210; Thermo Fisher Scientific) and diluted to 50 ng/ml for RNA-seq.
Sequencing reads generated from the Illumina HiSeq platform (Illumina, San Diego, CA) were assessed for quality and trimmed for adapter sequences using TrimGalore!, version 0.4.2 (Babraham Bioinformatics, Cambridge, United Kingdom), a wrapper script for FastQC and cutadapt. Reads that passed quality control were subsequently aligned to the human reference genome (GRCh38) using STAR aligner, version 2.5.1. Sequence alignment was guided using the GENCODE annotation for hg38. The aligned reads were analyzed for differential expression using Cufflinks, version 2.2.1, an RNA-seq analysis package that reports the fragments per kilobase of exon per million mapped for each gene. A differential analysis report was generated using the cuffdiff command performed in a pairwise manner for each group. Differential genes were identified using a significance cutoff of q<0.05. The differential expression profiles were then used as input in iPathwayGuide (Advaita Bioinformatics, Ann Arbor, MI) for pathway analysis.

A375 cells = conditions: cited from earlier work
melanoma metastasis = conditions: mouse, in vivo; cited from earlier work
[1] = system: melanocytic atypia and melanoma initiation markers; conditions: in vivo; cited from earlier work
[2] = fluvastatin 3 µM, 24 hours, vs untreated control
[3] = fluvastatin 3 µM, 24 hours, vs untreated control, SkylineDx profile gene

## CC(C)n1c(/C=C/C(O)CC(O)CC(=O)O)c(-c2ccc(F)cc2)c2ccccc21 (centres unmarked) [Fluvastatin]
A375 melanoma cells
  expression of genes included in melanoma prognostic tests (DecisionDx-Melanoma, Merlin Assay): significantly altered
  expression of genes used in a diagnostic test that distinguishes melanoma from nevi (myPath Melanoma): did not alter; also recorded: did not affect
A375 melanoma cells; 3 μM concentration for 24 hours
  effect on the metastatic gene expression profile of melanoma: effectively reverses
A375 melanoma cells; after fluvastatin exposure, q=0.062, not statistically significant
  SLC16A1 fold change: 0.797
A375 melanoma cells; [2]
  BUB1 Log2 Fold Change: −0.7319
  CCND3 Log2 Fold Change: −0.7194
  CDKN1A Log2 Fold Change: 1.3053
  CDKN1C Log2 Fold Change: 3.2643
  CUL1 Log2 Fold Change: −0.3847
  FGF2 Log2 Fold Change: −0.5791
  KIFC1 Log2 Fold Change: −0.4213
  MAGEA1 Log2 Fold Change: −0.4357
  MAGEA3 Log2 Fold Change: −0.4574
  MAGEA4 Log2 Fold Change: −0.2919
  MAGEA6 Log2 Fold Change: −0.4529
  MAGED1 Log2 Fold Change: 0.7222
  S1PR5 Log2 Fold Change: −1.3212
  SOX4 Log2 Fold Change: −0.4139
  TGFBRAP1 Log2 Fold Change: −0.3389
A375 melanoma cells; fluvastatin 3 µM, 24 hours, vs untreated control, Castle Biosciences profile gene
  AQP3 Log2 Fold Change: 3.2162
A375 melanoma cells; fluvastatin 3 µM, 24 hours, vs untreated control, Castle Biosciences profile gene (keratin 14)
  K14 Log2 Fold Change: 2.8530
A375 melanoma cells; [3]
  CXCL8 Log2 Fold Change: 0.8218
  ITGB3 Log2 Fold Change: 0.5304
  PLAT Log2 Fold Change: 1.7389
A375 melanoma cells; significance cutoff q<0.05
  differentially expressed genes identified: 2,615

## CC(C)c1c(C(=O)Nc2ccccc2)c(-c2ccccc2)c(-c2ccc(F)cc2)n1CC[C@@H](O)C[C@@H](O)CC(=O)O [atorvastatin, Atorvastatin]
A375 cells; Matrigel transwell assay
  migration and invasion: decreasing
A375 cells
  isoprenylation of RhoC: decreases
Melanoma metastasis
  metastasis: decreasing

## CC[C@H](C)C(=O)O[C@H]1C[C@@H](C)C=C2C=C[C@H](C)[C@H](CC[C@@H]3C[C@@H](O)CC(=O)O3)[C@H]21 [lovastatin, Lovastatin]
[1]
  melanocytic atypia or other melanoma initiation markers: did not identify any significant decreases
